Activity calls are given as the source filed them.
Key:
[1] = molecular target: SUMO-activating enzyme (Homo sapiens, UniProt Q9UBT2); test: blockers of UBC9-mediated SUMO conjugation – biochemical, AlphaScreen, SUMOylation inhibitor project, confirmation (AID 2018); type: functional
[2] = molecular target: Cytochrome P450 2D6 (Homo sapiens, UniProt P10635);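 also: CYP2D6 member of a cytochrome P450 panel assay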
[3] = system: HEK293; test: cells; conditions: Homo sapiens
[4] = system: HEK293; test: inhibition of NOD1-driven NF-kB reporter – cell-based, luminescence, uHTS, primary screen (AID 1578); type: functional; conditions: Homo sapiens
[5] = molecular target: Tumor necrosis factor (Homo sapiens, UniProt P01375); test: analog potency on TNFa NF-kB signaling – cell-based, revised, SAR follow-up (AID 2337); type: functional
Chain of Tumor necrosis factor (P01375 whole entry): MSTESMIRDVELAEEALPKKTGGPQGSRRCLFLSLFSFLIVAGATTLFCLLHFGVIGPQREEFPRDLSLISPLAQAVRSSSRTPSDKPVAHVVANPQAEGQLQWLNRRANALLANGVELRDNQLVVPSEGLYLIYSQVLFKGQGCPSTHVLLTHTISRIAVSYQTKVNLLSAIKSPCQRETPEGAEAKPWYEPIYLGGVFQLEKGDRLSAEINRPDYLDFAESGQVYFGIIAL

[6] = system: HEK293; test: cells; type: functional, cell-based; conditions: Homo sapiens
[7] = system: HEK293; test: cells; type: functional, cell-based; conditions: Homo sapiens; remark: listed apart in the source
[8] = molecular target: T1, Nucleotide-binding oligomerization domain-containing protein 1 (Homo sapiens, UniProt Q9Y239); test: blockers of NOD1 pathway activity – revised, SAR follow-up (AID 2333); type: functional
T1 sequence (Q9Y239 whole entry): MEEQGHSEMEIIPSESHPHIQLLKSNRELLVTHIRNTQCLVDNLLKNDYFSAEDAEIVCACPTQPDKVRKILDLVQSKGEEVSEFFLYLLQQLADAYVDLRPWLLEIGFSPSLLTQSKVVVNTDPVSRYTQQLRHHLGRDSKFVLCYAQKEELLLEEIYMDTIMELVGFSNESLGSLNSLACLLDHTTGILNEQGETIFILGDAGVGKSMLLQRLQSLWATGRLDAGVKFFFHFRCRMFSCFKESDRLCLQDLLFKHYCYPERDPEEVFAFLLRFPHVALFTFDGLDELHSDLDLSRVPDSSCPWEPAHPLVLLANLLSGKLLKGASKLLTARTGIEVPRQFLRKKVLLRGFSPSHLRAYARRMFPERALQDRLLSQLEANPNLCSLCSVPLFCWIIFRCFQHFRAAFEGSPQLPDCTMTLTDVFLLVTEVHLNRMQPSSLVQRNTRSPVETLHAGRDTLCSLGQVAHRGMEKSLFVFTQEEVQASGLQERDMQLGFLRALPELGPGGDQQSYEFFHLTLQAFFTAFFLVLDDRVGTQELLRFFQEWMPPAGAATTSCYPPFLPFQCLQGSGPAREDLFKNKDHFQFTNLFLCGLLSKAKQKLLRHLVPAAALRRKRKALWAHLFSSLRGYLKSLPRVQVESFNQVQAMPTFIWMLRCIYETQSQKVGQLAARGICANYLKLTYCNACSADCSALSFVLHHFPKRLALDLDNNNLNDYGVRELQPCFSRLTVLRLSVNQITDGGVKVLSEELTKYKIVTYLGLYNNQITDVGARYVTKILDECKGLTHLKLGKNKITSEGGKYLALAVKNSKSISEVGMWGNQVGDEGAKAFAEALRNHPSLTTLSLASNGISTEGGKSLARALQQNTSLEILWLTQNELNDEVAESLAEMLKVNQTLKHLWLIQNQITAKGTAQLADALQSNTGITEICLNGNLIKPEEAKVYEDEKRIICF

[9] = system: HEK293; test: NOD2 signaling inhibitors in MDP-stimulated cells, cell-based, uHTS, luminescence (AID 2001); type: functional; conditions: Homo sapiens
[10] = system: HEK293; test: cells; type: functional, cell-based; conditions: Homo sapiens; remark: listed apart in the source
[11] = molecular target: Nucleotide-binding oligomerization domain-containing protein 2 (Homo sapiens, UniProt Q9HC29); test: inhibition of NOD2-driven NF-kB reporter – cell-based, luminescence, uHTS, HEK293 (AID 1566); type: functional
Chain of Nucleotide-binding oligomerization domain-containing protein 2 (Q9HC29 whole entry, the tested form may be a part): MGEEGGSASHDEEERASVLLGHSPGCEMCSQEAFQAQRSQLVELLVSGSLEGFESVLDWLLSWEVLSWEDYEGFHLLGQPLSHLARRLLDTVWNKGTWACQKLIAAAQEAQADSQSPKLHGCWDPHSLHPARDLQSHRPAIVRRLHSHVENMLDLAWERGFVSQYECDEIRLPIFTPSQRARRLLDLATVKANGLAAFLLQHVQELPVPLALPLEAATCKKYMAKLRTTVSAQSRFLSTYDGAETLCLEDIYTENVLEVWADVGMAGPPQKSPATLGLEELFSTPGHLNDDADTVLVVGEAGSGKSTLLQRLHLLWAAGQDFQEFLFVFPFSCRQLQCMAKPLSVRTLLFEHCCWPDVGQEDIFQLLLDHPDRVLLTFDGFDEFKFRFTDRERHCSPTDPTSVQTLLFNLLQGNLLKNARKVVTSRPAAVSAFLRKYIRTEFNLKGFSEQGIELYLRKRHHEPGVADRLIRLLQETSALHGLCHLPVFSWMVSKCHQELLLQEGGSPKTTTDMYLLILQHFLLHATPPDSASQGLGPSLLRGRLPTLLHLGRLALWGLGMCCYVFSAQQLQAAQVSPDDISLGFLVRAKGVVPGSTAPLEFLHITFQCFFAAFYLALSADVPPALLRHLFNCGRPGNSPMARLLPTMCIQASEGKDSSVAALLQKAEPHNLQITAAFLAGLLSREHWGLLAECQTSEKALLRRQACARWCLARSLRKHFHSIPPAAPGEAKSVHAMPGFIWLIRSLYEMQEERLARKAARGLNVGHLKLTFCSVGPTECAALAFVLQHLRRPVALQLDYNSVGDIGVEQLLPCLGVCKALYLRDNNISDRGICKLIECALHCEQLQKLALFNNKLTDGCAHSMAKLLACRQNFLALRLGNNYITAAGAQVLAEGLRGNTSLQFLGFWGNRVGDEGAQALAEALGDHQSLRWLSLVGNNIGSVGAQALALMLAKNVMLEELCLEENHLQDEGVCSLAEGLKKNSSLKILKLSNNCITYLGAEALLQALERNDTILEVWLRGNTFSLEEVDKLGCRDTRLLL

[12] = molecular target: Cytochrome P450 2C19 (Homo sapiens, UniProt P33261); test: Cytochrome panel assay with activity outcomes. Panel member name: p450-cyp2c19 Compounds with AC50 equal or less than 10 uM are considered active; type: functional; conditions: read-out: AC50
Chain of Cytochrome P450 2C19 (P33261 whole entry): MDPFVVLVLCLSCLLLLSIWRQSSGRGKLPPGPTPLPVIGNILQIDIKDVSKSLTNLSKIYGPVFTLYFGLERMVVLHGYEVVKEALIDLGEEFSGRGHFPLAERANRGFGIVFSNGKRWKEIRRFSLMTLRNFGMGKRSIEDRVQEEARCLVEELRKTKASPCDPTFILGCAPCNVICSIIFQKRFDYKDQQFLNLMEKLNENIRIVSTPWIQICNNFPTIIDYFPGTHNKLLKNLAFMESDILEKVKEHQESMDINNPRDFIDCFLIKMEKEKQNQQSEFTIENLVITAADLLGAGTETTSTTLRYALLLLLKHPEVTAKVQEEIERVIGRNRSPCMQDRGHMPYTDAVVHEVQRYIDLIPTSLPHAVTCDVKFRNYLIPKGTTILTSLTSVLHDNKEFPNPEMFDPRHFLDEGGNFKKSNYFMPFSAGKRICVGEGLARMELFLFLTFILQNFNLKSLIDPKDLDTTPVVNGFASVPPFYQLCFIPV

[13] = non-specific 3'UTR reporter inhibition in Clone20-Shn3RL – cell-based, Renilla luciferase, cherry-picked, counter-screen for Shn3 inhibitor project, dose response (AID 624133); type: functional
[14] = reduction of Shn3 3'UTR-driven luciferase in osteoblasts – cell-based, Clone20 osteoblasts, firefly luciferase, cherry-picked, dose response (AID 624132); type: functional;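 also: firefly luciferase luminescence from reporter carrying the Shn3 3'UTR in osteoblasts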
[15] = system: INS1; test: INS-1E survival protection against cytokine death – cell-based, luminescence, retest, dose response (AID 449756); type: functional; conditions: Rattus norvegicus;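 also: cell death triggered by IL-1 beta plus TNF-alpha plus IFN-gamma mixture; protective hits raise ATP signal compared with cytokine alone wells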
[16] = molecular target: T2, COUP transcription factor 2 (Homo sapiens, UniProt P24468); test: Luminescence-based cell-based high throughput dose response assay to identify inhibitors of COUP-TFII (NR2F2).; type: functional;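 also: HEK293 cells transiently cotransfected with COUP-TFII expression vector and reporter; luciferase reporter luminescence driven by COUP-TFII from the pX2-168 reporter plasmid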
T2 sequence (P24468 whole entry): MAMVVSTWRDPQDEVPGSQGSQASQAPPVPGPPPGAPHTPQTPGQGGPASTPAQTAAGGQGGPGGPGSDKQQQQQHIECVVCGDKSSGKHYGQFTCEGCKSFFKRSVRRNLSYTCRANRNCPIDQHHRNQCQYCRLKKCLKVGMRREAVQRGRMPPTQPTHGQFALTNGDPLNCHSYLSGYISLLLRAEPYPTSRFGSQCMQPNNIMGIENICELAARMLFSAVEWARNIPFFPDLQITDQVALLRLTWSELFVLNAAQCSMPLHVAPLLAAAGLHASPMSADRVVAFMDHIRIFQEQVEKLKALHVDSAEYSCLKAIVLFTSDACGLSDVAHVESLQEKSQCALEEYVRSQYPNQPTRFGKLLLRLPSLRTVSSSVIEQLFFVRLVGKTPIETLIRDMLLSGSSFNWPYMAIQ

[17] = molecular target: T3, Hexokinase-1 (Homo sapiens, UniProt P19367); test: SAR analysis of small molecule inhibitors of hexokinase domain containing I (HKDC1) in the hexokinase 1 selectivity assay. [Related pubchem assays (depositor defined):AID493160, AID493190]; type: functional
T3 sequence (P19367 whole entry): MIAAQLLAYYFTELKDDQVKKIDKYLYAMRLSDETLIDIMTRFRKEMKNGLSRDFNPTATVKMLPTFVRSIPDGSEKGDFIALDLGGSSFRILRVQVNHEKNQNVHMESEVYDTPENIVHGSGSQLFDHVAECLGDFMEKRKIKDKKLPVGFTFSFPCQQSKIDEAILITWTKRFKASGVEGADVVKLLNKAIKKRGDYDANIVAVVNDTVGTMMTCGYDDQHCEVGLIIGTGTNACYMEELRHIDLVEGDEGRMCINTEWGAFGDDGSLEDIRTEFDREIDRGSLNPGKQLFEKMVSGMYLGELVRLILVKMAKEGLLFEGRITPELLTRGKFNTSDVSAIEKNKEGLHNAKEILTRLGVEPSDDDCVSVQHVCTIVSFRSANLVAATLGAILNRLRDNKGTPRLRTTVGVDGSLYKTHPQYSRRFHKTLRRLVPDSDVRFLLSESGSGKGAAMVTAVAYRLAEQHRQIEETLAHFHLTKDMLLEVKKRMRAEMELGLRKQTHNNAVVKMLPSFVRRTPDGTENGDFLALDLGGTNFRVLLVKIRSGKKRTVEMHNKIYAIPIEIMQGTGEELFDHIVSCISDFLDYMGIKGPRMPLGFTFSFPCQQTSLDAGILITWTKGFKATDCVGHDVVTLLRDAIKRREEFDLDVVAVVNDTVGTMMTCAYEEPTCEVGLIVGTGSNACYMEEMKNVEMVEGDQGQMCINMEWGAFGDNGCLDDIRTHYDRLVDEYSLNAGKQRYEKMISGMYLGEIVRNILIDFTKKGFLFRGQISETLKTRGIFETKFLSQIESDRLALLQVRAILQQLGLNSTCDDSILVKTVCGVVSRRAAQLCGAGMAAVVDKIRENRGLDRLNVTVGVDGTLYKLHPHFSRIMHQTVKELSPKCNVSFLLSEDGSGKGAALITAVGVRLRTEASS

[18] = molecular target: T4, Hexokinase HKDC1 (Homo sapiens, UniProt Q2TB90); test: SAR analysis of small molecule inhibitors of hexokinase domain containing I (HKDC1). [Related pubchem assays (depositor defined):AID493160, AID493190]; type: functional
T4 sequence (Q2TB90 whole entry): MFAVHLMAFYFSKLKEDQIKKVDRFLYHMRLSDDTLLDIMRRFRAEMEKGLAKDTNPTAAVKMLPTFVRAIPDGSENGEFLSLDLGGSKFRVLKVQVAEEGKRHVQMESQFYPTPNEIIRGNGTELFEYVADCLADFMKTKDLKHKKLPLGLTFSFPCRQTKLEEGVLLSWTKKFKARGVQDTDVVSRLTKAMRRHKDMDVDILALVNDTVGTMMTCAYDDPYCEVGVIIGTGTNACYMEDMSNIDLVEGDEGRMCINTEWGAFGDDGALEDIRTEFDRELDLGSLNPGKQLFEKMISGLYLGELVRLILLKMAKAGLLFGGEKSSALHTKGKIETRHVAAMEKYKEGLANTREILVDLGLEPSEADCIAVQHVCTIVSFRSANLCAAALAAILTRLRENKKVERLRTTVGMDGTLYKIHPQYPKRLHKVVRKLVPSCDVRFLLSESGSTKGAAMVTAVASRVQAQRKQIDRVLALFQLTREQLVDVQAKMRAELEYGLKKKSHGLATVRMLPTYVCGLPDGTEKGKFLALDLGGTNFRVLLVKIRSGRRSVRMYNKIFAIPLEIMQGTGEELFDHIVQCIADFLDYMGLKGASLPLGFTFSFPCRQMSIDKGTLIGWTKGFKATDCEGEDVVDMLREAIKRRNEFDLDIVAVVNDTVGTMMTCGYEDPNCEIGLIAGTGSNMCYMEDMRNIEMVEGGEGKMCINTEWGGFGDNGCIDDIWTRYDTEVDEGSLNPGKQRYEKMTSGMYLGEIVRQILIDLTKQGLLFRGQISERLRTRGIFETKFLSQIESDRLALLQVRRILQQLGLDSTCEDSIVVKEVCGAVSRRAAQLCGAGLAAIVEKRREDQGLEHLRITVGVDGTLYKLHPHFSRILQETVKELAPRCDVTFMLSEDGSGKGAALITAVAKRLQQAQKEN

[19] = molecular target: Cytochrome P450 2C9 (Homo sapiens, UniProt P11712)
Chain of Cytochrome P450 2C9 (P11712 whole entry): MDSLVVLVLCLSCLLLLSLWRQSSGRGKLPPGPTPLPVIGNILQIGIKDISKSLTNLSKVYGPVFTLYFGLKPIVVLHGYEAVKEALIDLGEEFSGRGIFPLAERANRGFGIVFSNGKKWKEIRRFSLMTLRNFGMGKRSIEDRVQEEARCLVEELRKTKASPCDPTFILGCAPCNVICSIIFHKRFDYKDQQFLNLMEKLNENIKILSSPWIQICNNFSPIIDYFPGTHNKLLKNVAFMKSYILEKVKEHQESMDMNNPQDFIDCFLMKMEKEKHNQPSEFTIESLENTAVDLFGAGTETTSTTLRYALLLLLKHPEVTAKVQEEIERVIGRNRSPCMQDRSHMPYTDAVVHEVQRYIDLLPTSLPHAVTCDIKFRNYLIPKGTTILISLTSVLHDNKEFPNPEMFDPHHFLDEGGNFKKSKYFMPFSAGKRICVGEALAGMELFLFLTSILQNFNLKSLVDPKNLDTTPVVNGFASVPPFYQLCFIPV

Chain of Cytochrome P450 2D6 (P10635 whole entry): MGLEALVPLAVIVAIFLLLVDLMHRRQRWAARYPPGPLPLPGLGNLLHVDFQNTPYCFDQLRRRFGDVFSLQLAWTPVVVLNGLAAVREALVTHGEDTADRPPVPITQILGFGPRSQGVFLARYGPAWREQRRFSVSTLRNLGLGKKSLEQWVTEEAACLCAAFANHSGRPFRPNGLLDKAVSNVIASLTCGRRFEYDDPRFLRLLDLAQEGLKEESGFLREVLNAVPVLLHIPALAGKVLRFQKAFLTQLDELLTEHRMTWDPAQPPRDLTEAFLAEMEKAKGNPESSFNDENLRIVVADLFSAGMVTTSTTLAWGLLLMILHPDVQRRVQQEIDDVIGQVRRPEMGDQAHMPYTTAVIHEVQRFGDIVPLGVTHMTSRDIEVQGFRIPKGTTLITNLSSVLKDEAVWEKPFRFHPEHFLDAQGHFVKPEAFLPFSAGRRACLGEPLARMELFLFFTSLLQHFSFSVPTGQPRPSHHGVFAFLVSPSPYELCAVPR
Chain of SUMO-activating enzyme (Q9UBE0 whole entry): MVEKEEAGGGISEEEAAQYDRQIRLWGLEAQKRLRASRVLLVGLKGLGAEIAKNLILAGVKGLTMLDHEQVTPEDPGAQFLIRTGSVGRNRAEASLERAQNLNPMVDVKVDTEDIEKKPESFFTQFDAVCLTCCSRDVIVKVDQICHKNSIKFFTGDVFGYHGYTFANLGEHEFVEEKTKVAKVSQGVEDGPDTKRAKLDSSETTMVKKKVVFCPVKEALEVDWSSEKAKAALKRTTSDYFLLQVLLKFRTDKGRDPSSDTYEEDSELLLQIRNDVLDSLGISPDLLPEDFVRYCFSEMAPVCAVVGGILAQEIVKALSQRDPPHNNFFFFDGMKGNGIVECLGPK
Chain of SUMO-activating enzyme (Q9UBT2 whole entry): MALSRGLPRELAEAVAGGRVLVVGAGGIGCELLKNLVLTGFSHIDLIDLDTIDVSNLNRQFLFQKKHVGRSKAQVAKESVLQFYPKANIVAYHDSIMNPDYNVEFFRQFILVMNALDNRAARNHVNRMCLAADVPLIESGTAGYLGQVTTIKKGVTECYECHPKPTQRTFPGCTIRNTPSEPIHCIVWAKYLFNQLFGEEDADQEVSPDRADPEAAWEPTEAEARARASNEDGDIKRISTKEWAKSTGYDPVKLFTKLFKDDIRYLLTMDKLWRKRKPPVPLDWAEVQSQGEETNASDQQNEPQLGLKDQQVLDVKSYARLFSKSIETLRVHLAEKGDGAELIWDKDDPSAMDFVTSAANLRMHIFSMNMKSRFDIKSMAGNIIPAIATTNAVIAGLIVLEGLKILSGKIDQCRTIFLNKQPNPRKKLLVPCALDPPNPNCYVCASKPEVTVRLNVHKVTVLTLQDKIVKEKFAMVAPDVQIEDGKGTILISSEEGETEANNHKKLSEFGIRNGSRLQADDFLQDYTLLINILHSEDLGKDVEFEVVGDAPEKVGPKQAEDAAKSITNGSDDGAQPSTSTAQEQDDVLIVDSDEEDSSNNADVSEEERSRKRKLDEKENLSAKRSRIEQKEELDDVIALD

## Cc1cc(OC(C(=O)O)c2ccccc2)c2c(C)c(Cc3ccccc3)c(=O)oc2c1 (stereo not drawn)
[1]
  IC50: 41.3 µM (active)

## CC(C)[C@](N)(C(=O)O)c1ccccc1
[2]
  AC50: inconclusive

## O=C(c1ccc(S(=O)(=O)c2cccc(Cl)c2)c([N+](=O)[O-])c1)N1CCN(c2ccccn2)CC1
[3]
  IC50: 8.21 µM (active)
[4]
  EC50: 10.1 µM (active)
[5]
  IC50: 4.43 µM (active)
[6]
  IC50: > 20 µM (inactive)
[7]
  IC50: 1.72 µM (active)
[8]
  IC50: 1.4 µM (active)
[9]
  IC50: 1.95 µM (active)
[10]
  IC50: 10.4 µM (active)
[11]
  EC50: 12.3 µM (active)

## O=C(CCN1C(=O)C2C3C=CC(C3)C2C1=O)Nc1ccc2ncccc2c1 (stereo not drawn)
[12]
  AC50: 20 µM (inconclusive)
[2]
  AC50: inconclusive

## CO/N=C(/C)CCC(=O)OC[C@@H]1O[C@H](C#Cc2ccccc2)C=C[C@@H]1Oc1ccc(C)cc1
[2]
  AC50: inconclusive

## Cc1cc(C(=O)NC2CCCc3c2cnn3-c2ccc(C)c(C)c2)n(C)n1 (stereo not drawn)
[3]
  IC50: > 20 µM (inactive)
[5]
  IC50: 0.0793 µM (active)
[13]
  AC50: < 0.26 µM (active)
[8]
  IC50: 0.0431 µM (active)
[14]
  AC50: < 0.26 µM (active)
[15]
  AC50: 0.24 µM (active)
[16]
  IC50: > 0.117 µM (active)

## O=c1c2ccccc2nc(/C=C/c2ccccc2)n1CCc1ccccc1
[17]
  IC50: > 80 µM (inactive)
[18]
  IC50: > 80 µM (inactive)

## Cc1nn(-c2ccccc2)c2nc(C(Cl)(Cl)Cl)nc(O)c12
[3]
  IC50: > 20 µM (inactive)
[4]
  EC50: 12.4 µM (active)
[6]
  IC50: > 20 µM (inactive)
[7]
  IC50: > 20 µM (inactive)
[9]
  IC50: 17.9 µM (inactive)
[10]
  IC50: > 20 µM (inactive)

## NC(=O)c1ccsc1NC(=O)COC(=O)Cc1cccc2ccccc12
[16]
  IC50: 13.8 µM (inactive)

## CO[C@H]1COC(=O)[C@@H](Cc2ccccc2)NC(=O)[C@@H](C)COC(=O)CCC[C@@H]1C
[2]
  AC50: inconclusive

## Cc1ccc(C)c(S(=O)(=O)Nc2cccc3ccccc23)c1
[17]
  IC50: > 80 µM (inactive)
[18]
  IC50: > 80 µM (inactive)

## O=S(=O)(Nc1ccc(O)c2ccccc12)c1ccc(Cl)cc1
[17]
  IC50: > 80 µM (inactive)
[18]
  IC50: 15.6 µM (active)

## CCN(CC)S(=O)(=O)c1cccc(NC(=O)COC(=O)c2[nH]c(C)c(C(C)=O)c2C)c1
[16]
  IC50: 5.62 µM (active)

## C/C(=N/NC(=O)c1ccc(NC(=O)c2ccc(F)cc2)cc1)c1ccccc1
[19]
  AC50: 5.01 µM (inconclusive)
[2]
  AC50: inconclusive

— ChEMBL document CHEMBL1201862, “PubChem BioAssay data set” (2004)
